According to PubChem BioAssay (NCI):
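Grown in 96-well plates, cells were treated for 48 hours with each compound at five concentrations. Insufficient inhibition: endpoint recorded as highest concentration tested. TGI marks complete inhibition of growth.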

Key:
Test in all cases: DTP human tumour cell line panel, 48 h
[1] = system: OVCAR-3 ovarian
[2] = system: NCI-H522 lung
[3] = system: MOLT-4 leukemia
[4] = system: SNB-75 CNS
[5] = system: A498 renal
[6] = system: M14 melanoma
[7] = system: SK-MEL-28 melanoma
[8] = system: K-562 leukemia
[9] = system: OVCAR-8 ovarian
[10] = system: RXF 393 renal
[11] = system: MALME-3M melanoma
[12] = system: COLO 205 colon
[13] = system: TK-10 renal
[14] = system: SK-MEL-5 melanoma
[15] = system: SF-268 CNS
[16] = system: SW-620 colon
[17] = system: NCI/ADR-RES ovarian
[18] = system: CCRF-CEM leukemia
[19] = system: CAKI-1 renal
[20] = system: SK-MEL-2 melanoma
[21] = system: HS 578T breast
[22] = system: U251 CNS
[23] = system: MCF7 breast
[24] = system: MDA-MB-435
[25] = system: MDA-MB-231 breast
[26] = system: KM12 colon
[27] = system: NCI-H460 lung
[28] = system: HCT-116 colon
[29] = system: SK-OV-3 ovarian
[30] = system: DU-145 prostate
[31] = system: SNB-19 CNS
[32] = system: MDA-N
[33] = system: HT29 colon
[34] = system: NCI-H226 lung
[35] = system: IGROV1 ovarian
[36] = system: UACC-62 melanoma
[37] = system: SR leukemia
[38] = system: EKVX NSCLC
[39] = system: HOP-92 NSCLC
[40] = system: PC-3 prostate
[41] = system: HCC-2998 colon
[42] = system: A549 NSCLC
[43] = system: LOX IMVI melanoma
[44] = system: HOP-62 NSCLC
[45] = system: NCI-H23 lung
[46] = system: UO-31 renal
[47] = system: ACHN renal
[48] = system: 786-0 renal
[49] = system: OVCAR-4 ovarian
[50] = system: SF-295 CNS
[51] = system: HCT-15 colon
[52] = system: UACC-257 melanoma
[53] = system: T-47D breast
[54] = system: SN12C renal
[55] = system: SF-539 CNS
[56] = system: OVCAR-5 ovarian
[57] = system: HL-60(TB) leukemia
[58] = system: BT-549 breast
[59] = system: RPMI-8226 leukemia

Measured: TGI

O=C1CCCCCCCCCCC1CCCCCBr (stereo not drawn)
31.2 µM: [14]
95.1 µM: [19]
34.5 µM: [8]
58.5 µM: [52]
38.6 µM: [41]
28.2 µM: [5]
64.7 µM: [31]
56.2 µM: [35]
43.3 µM: [22]
43.8 µM: [10]
84 µM: [47]
97.7 µM: [24]
63.3 µM: [23]
64.3 µM: [17]
35.8 µM: [12]
43.1 µM: [54]
44.4 µM: [2]
73.9 µM: [53]
67.1 µM: [56]
35 µM: [18]
44.1 µM: [37]
95.6 µM: [33]
32.4 µM: [20]
84.4 µM: [7]
37.8 µM: [43]
74.8 µM: [45]
65.9 µM: [46]
56.8 µM: [51]
44.7 µM: [1]
45.9 µM: [28]
67.6 µM: [39]
59.1 µM: [55]
49.8 µM: [4]
53.7 µM: [26]
86 µM: [48]
67.2 µM: [49]
40 µM: [34]
83.6 µM: [6]
33.6 µM: [3]
45.1 µM: [25]
38.4 µM: [11]
not listed: [57] | [58] | [59]
> 100 µM: all other assays above

Cc1cc(C)nc(NS(=O)(=O)c2ccc(NNc3c4ccccc4nc4c(C(=O)Nc5ccc(S(N)(=O)=O)cc5)cccc34)cc2)n1
89 µM: [25]
33 µM: [4]
73.3 µM: [37]
32.9 µM: [40]
83.6 µM: [18]
85.8 µM: [2]
84.3 µM: [41]
70.3 µM: [22]
46.7 µM: [20]
92.3 µM: [7]
not listed: [5]
> 100 µM: all other assays above

COc1cccc2c1CCc1c(-c3ccc(F)cc3)cc(-c3ccc4ccccc4n3)nc1-2
not listed: [7] | [30] | [41] | [54] | [57]
> 100 µM: all other assays above
